The results in this text go back to US20250179059A1 (The Regents of the University of California, priority 2021, published 2025).

The test system of test [1] is human SKM-1 acute myeloid leukemia cells. The test is described as follows: SKM-1 antiproliferation cell-based assay (ATPlite). To be noted: Homo sapiens, SKM-1, 96 h, SKM-1 antiproliferation assay, 4 days, Table C2. A digest of the protocol:
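Log-phase cells in RPMI 1640/15% FBS were seeded at 34722 cells/mL and exposed for 4 days to nine-concentration DMSO serial dilutions in triplicate. Viability was read as ATP luminescence (ATPlite 1step), and IC50 values came from variable-slope non-linear regression.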

Test [2] addresses T1, human BRD4 bromodomain II (Homo sapiens, UniProt O60885).
T1 construct: human BRD4 bromodomain II [based on Genbank NM_058243, residues 349-460]; host or cells: E. coli
The test is described as follows: Bromodomain binding assay (AlphaScreen), BRD4 BDII. To be noted: AlphaScreen assay, Table C2; read-out: BRD4 BDII IC50. The gist of the method:
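First, His6-tagged BRD4 bromodomain (BDI residues 44-170 or BDII residues 349-460) is incubated with compound for 30 min at room temperature. Next the biotinylated H4 peptide is added for 30 min, then donor and acceptor beads, with 60 min in the dark before AlphaScreen reading and IC50 fitting.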

The compound `COCCC1CN(c2cc(-c3cc(F)cc(-c4ccc(-n5ccn(C)c5=O)c(Cl)c4)c3O)ccn2)CCN1` (stereo not shown) [Example 676, 1-(3-chloro-5′-fluoro-2′-hydroxy-3′-(2-(3-(2-methoxyethyl)piperazin-1-yl)pyridin-4-yl)-[1,1′-biphenyl]-4-yl)-3-methyl-1H-imidazol-2(3H)-one] displayed a GI50 in test [1] of 0.3 to 30 nM. The half-maximal inhibitory concentration (IC50) in test [2] was in the range of 0.01 to 1 nM.

Turning to `C[C@@H]1CN(c2cc(-c3cc(F)cc(-c4ccc(-n5ccn(C)c5=O)c(Cl)c4)c3O)ccc2F)CCN1` [Example 677, (R)-1-(3-chloro-4″,5′-difluoro-2′-hydroxy-3″-(3-methylpiperazin-1-yl)-[1,1′:3′,1″-terphenyl]-4-yl)-3-methyl-1H-imidazol-2(3H)-one], the GI50 in test [1] was 0.3 to 30 nM. Besides, in test [2], the half-maximal inhibitory concentration (IC50) fell in the range of 0.01 to 1 nM.

`CC(C)N1CCCN(c2cc(-c3cc(F)cc(-c4ccc(-n5ccn(C)c5=O)c(Cl)c4)c3O)ccn2)CC1` [Example 678, 1-(3-chloro-5′-fluoro-2′-hydroxy-3′-(2-(4-isopropyl-1,4-diazepan-1-yl)pyridin-4-yl)-[1,1′-biphenyl]-4-yl)-3-methyl-1H-imidazol-2(3H)-one] registered a 50% growth inhibitory concentration (GI50) in test [1] of 0.3 to 30 nM. In addition, in test [2], the IC50 lay in the range of 0.01 to 1 nM.

In turn, `COC(=O)CC1CN(c2cc(-c3cc(F)cc(-c4ccc(-n5ccn(C)c5=O)c(Cl)c4)c3O)ccn2)CCN1` (stereo not shown) [Example 679, methyl 2-(4-(4-(3′-chloro-5-fluoro-2-hydroxy-4′-(3-methyl-2-oxo-2,3-dihydro-1H-imidazol-1-yl)-[1,1′-biphenyl]-3-yl)pyridin-2-yl)piperazin-2-yl)acetate] showed a concentration for 50% growth inhibition (GI50) in test [1] of 30 to 300 nM. Moreover, the IC50 in test [2] fell in the range of 1 to 10 nM.

`Cn1ccn(-c2ccc(-c3cc(F)cc(-c4ccnc(N5CCN[C@H](CN)C5)c4)c3O)cc2Cl)c1=O` [Example 680, (R)-1-(3′-(2-(3-(aminomethyl)piperazin-l-yl)pyridin-4-yl)-3-chloro-5′-fluoro-2′-hydroxy-[1,1′-biphenyl]-4-yl)-3-methyl-1H-imidazol-2(3H)-one] displayed a 50% growth inhibitory concentration (GI50) in test [1] of 30 to 300 nM. Further, the 50% inhibitory concentration (IC50) in test [2] lay within 0.01 to 1 nM.

As to `Cn1ccn(-c2ccc(-c3cc(F)cc(-c4ccnc(N5CCN(CCC6CC6)CC5)c4)c3O)cc2Cl)c1=O` [Example 681, 1-(3-chloro-3′-(2-(4-(2-cyclopropylethyl)piperazin-1-yl)pyridin-4-yl)-5′-fluoro-2′-hydroxy-[1,1′-biphenyl]-4-yl)-3-methyl-1H-imidazol-2(3H)-one], in test [1], the GI50 lay in the range of 0.3 to 30 nM. For the same compound, the IC50 in test [2] fell in the range of 0.01 to 1 nM.

Regarding `CC(C)CN1CCN(c2cc(-c3cc(F)cc(-c4ccc(-n5ccn(C)c5=O)c(Cl)c4)c3O)ccn2)CC1` [Example 682, 1-(3-chloro-5′-fluoro-2′-hydroxy-3′-(2-(4-isobutylpiperazin-1-yl)pyridin-4-yl)-[1,1′-biphenyl]-4-yl)-3-methyl-1H-imidazol-2(3H)-one], the GI50 in test [1] lay in the range of 0.3 to 30 nM. The IC50 in test [2] lay within 0.01 to 1 nM.

Compound `Cn1ccn(-c2ccc(-c3cc(F)cc(-c4ccnc(N5CCC6(CCCO6)C5)c4)c3O)cc2Cl)c1=O` (stereo not shown) [Example 683, 1-(3′-(2-(1-oxa-7-azaspiro[4.4]nonan-7-yl)pyridin-4-yl)-3-chloro-5′-fluoro-2′-hydroxy-[1,1′-biphenyl]-4-yl)-3-methyl-1H-imidazol-2(3H)-one] showed a 50% growth inhibitory concentration (GI50) in test [1] of 30 to 300 nM. In test [2], the IC50 lay within 0.01 to 1 nM.

`C[C@@H]1CN(c2cc(-c3cc(F)cc(-c4ccc(-n5ccn(C)c5=O)c(Cl)c4)c3O)ccn2)C[C@@H](C)O1` [Example 684, 1-(3-chloro-3′-(2-((2R,6R)-2,6-dimethylmorpholino)pyridin-4-yl)-5′-fluoro-2′-hydroxy-[1,1′-biphenyl]-4-yl)-3-methyl-1H-imidazol-2(3H)-one] displayed a concentration for 50% growth inhibition (GI50) in test [1] of 30 to 300 nM. For the same compound, the IC50 in test [2] lay in the range of 1 to 10 nM.

Turning to `Cn1ccn(-c2ccc(-c3cc(F)cc(-c4ccnc(N5CCC(C)(O)C5)c4)c3O)cc2Cl)c1=O` (stereo not shown) [Example 685, 1-(3-chloro-5′-fluoro-2′-hydroxy-3′-(2-(3-hydroxy-3-methylpyrrolidin-1-yl)pyridin-4-yl)-[1,1′-biphenyl]-4-yl)-3-methyl-1H-imidazol-2(3H)-one], the 50% growth inhibitory concentration (GI50) in test [1] is 0.3 to 30 nM. The IC50 in test [2] lay in the range of 0.01 to 1 nM.

`Cn1ccn(-c2ccc(-c3cc(F)cc(-c4ccnc(N5CCC(C)(N)C5)c4)c3O)cc2Cl)c1=O` (stereo not shown) [Example 686, 1-(3′-(2-(3-amino-3-methylpyrrolidin-1-yl)pyridin-4-yl)-3-chloro-5′-fluoro-2′-hydroxy-[1,1′-biphenyl]-4-yl)-3-methyl-1H-imidazol-2(3H)-one] returned a GI50 in test [1] of 0.3 to 30 nM. Besides, the IC50 in test [2] is 0.01 to 1 nM.

The compound `Cn1cc(-c2cc(F)cc(-c3ccc(-n4ccn(C)c4=O)c(Cl)c3)c2O)cc(N2CCC3(CCCN3)C2)c1=O` (stereo not shown) [Example 687, 5-(3′-chloro-5-fluoro-2-hydroxy-4′-(3-methyl-2-oxo-2,3-dihydro-1H-imidazol-1-yl)-[1,1′-biphenyl]-3-yl)-1-methyl-3-(1,7-diazaspiro[4.4]nonan-7-yl)pyridin-2(1H)-one] gave a 50% growth inhibitory concentration (GI50) in test [1] of 0.3 to 30 nM. The IC50 in test [2] is 0.01 to 1 nM.

In test [1], `Cn1ccn(-c2ccc(-c3cc(F)cc(-c4ccnc(N5CCCC6(CCN6)C5)c4)c3O)cc2Cl)c1=O` (stereo not shown) [Example 688, 1-(3′-(2-(1,6-diazaspiro[3.5]nonan-6-yl)pyridin-4-yl)-3-chloro-5′-fluoro-2′-hydroxy-[1,1′-biphenyl]-4-yl)-3-methyl-1H-imidazol-2(3H)-one] displayed a 50% growth inhibitory concentration (GI50) of 0.3 to 30 nM. In addition, the half-maximal inhibitory concentration (IC50) in test [2] fell in the range of 0.01 to 1 nM.

`C[C@@H]1CN(c2cc(-c3cc(F)cc(-c4ccc(-n5ccn(C)c5=O)c(Cl)c4)c3O)cc(=O)n2C)CCN1` [Example 689, (R)-4-(3′-chloro-5-fluoro-2-hydroxy-4′-(3-methyl-2-oxo-2,3-dihydro-1H-imidazol-1-yl)-[1,1′-biphenyl]-3-yl)-1-methyl-6-(3-methylpiperazin-1-yl)pyridin-2(1H)-one] returned a concentration for 50% growth inhibition (GI50) in test [1] of 0.3 to 30 nM. For the same compound, the IC50 in test [2] fell in the range of 0.01 to 1 nM.

In test [1], `Cn1ccn(-c2ccc(-c3cc(F)cc(-c4ccnc(N5CC[S+]([O-])CC5)c4)c3O)cc2Cl)c1=O` [Example 690, 1-(3-chloro-5′-fluoro-2′-hydroxy-3′-(2-(1-oxidothiomorpholino)pyridin-4-yl)-[1,1′-biphenyl]-4-yl)-3-methyl-1H-imidazol-2(3H)-one] yielded a GI50 of 30 to 300 nM. In addition, the half-inhibitory concentration (IC50) in test [2] was in the range of 0.01 to 1 nM.

On to `CO[C@H]1CCN(c2cc(-c3cc(F)cc(-c4ccc(-n5ccn(C)c5=O)c(Cl)c4)c3O)ccn2)C1` [Example 691, (S)-1-(3-chloro-5′-fluoro-2′-hydroxy-3′-(2-(3-methoxypyrrolidin-1-yl)pyridin-4-yl)-[1,1′-biphenyl]-4-yl)-3-methyl-1H-imidazol-2(3H)-one], for which the GI50 in test [1] was 30 to 300 nM. For the same compound, the half-inhibitory concentration (IC50) in test [2] was 0.01 to 1 nM.

`Cn1ccn(-c2ccc(-c3cc(F)cc(-c4cncc(N5CCC6(CCCN6)C5)c4)c3O)cc2Cl)c1=O` (stereo not shown) [Example 692, 1-(3′-(5-(1,7-diazaspiro[4.4]nonan-7-yl)pyridin-3-yl)-3-chloro-5′-fluoro-2′-hydroxy-[1,1′-biphenyl]-4-yl)-3-methyl-1H-imidazol-2(3H)-one] registered a GI50 in test [1] of 0.3 to 30 nM. Besides, in test [2], the concentration for half-maximal inhibition (IC50) lay within 0.01 to 1 nM.

The compound `CN1CCC12CCCN(c1cc(-c3cc(F)cc(-c4ccc(-n5ccn(C)c5=O)c(Cl)c4)c3O)ccn1)C2` (stereo not shown) [Example 693, 1-(3-chloro-5′-fluoro-2′-hydroxy-3′-(2-(1-methyl-1,6-diazaspiro[3.5]nonan-6-yl)pyridin-4-yl)-[1,1′-biphenyl]-4-yl)-3-methyl-1H-imidazol-2(3H)-one] returned a GI50 in test [1] of 0.3 to 30 nM. In addition, in test [2], the IC50 lay within 0.01 to 1 nM.

`Cn1ccn(-c2ccc(-c3cc(F)cc(-c4ccnc(N5CCCC6(CCCN6)C5)c4)c3O)cc2Cl)c1=O` (stereo not shown) [Example 694, 1-(3′-(2-(1,7-diazaspiro[4.5]decan-7-yl)pyridin-4-yl)-3-chloro-5′-fluoro-2′-hydroxy-[1,1′-biphenyl]-4-yl)-3-methyl-1H-imidazol-2(3H)-one] yielded a GI50 in test [1] of 0.3 to 30 nM. Moreover, in test [2], the IC50 lay in the range of 1 to 10 nM.

`CN1CCCC12CCCN(c1cc(-c3cc(F)cc(-c4ccc(-n5ccn(C)c5=O)c(Cl)c4)c3O)ccn1)C2` (stereo not shown) [Example 695, 1-(3-chloro-5′-fluoro-2′-hydroxy-3′-(2-(1-methyl-1,7-diazaspiro[4.5]decan-7-yl)pyridin-4-yl)-[1,1′-biphenyl]-4-yl)-3-methyl-1H-imidazol-2(3H)-one] yielded a 50% growth inhibitory concentration (GI50) in test [1] of 0.3 to 30 nM. Besides, the half-inhibitory concentration (IC50) in test [2] fell in the range of 0.01 to 1 nM.

As to `CN1CCCC12CCN(c1cc(-c3cc(F)cc(-c4ccc(-n5ccn(C)c5=O)c(Cl)c4)c3O)cn(C)c1=O)C2` (stereo not shown) [Example 696, 5-(3′-chloro-5-fluoro-2-hydroxy-4′-(3-methyl-2-oxo-2,3-dihydro-1H-imidazol-1-yl)-[1,1′-biphenyl]-3-yl)-1-methyl-3-(1-methyl-1,7-diazaspiro[4.4]nonan-7-yl)pyridin-2(1H)-one], the GI50 in test [1] was 0.3 to 30 nM. For the same compound, the IC50 in test [2] lay in the range of 0.01 to 1 nM.

`Cn1ccn(-c2ccc(-c3cc(F)cc(-c4ccnc(N5CCNC(CCN)C5)c4)c3O)cc2Cl)c1=O` (stereo not shown) [Example 697, 1-(3′-(2-(3-(2-aminoethyl)piperazin-1-yl)pyridin-4-yl)-3-chloro-5′-fluoro-2′-hydroxy-[1,1′-biphenyl]-4-yl)-3-methyl-1H-imidazol-2(3H)-one] displayed a GI50 in test [1] of 30 to 300 nM. In addition, in test [2], the IC50 is 1 to 10 nM.

As for `Cn1ccn(-c2ccc(-c3cc(F)cc(-c4ccnc(N5CCN[C@H](CC#N)C5)c4)c3O)cc2Cl)c1=O` [Example 698, (R)-2-(4-(4-(3′-chloro-5-fluoro-2-hydroxy-4′-(3-methyl-2-oxo-2,3-dihydro-1H-imidazol-1-yl)-[1,1′-biphenyl]-3-yl)pyridin-2-yl)piperazin-2-yl)acetonitrile], the GI50 in test [1] lay in the range of 0.3 to 30 nM. Also, the concentration for half-maximal inhibition (IC50) in test [2] lay in the range of 0.01 to 1 nM.
